{
  "source": "patent US7563598B2",
  "about": "(Ambergen, Inc., priority 2004, dated 2009)",
  "key": {"[1]": {"system": "proteases in rabbit reticulocyte extract", "settings": "extract pre-treated with inhibitor, then R6; MALDI", "experimental": "In this experiment, protease inhibitors were tested to inhibit the degradation of the peptide R6 (described above). In one experiment, 10 μL of rabbit reticulocyte extract was pre-treated by incubating with a specific protease inhibitor such as ebelactone or 2-LeuLeuNVa-CHO for 10-15 min. Following pretreatment, peptide R6 was added to above translation mix and incubated for 10 min at 30° C. The reaction was terminated by addition of 100 μL of 100 mM EDTA and the solution was immediately applied to the microcolumn containing 1 μL of Sigma ANTI-FLAG beads. The beads were then washed with 50 μL of 20 mM Tris-HCl, pH 7.2 and the bound peptide was eluted with approximately 4 μL of matrix solution (CHCA/acetonitrile/TFA) directly onto a MALDI plate. In the control experiment, extract pre-treated with buffer was used and processed as described above.\n2 μL of the above protease inhibitor solution was added to 10 μL of the translation mixture."}, "[2]": {"system": "proteolysis in PURE I reconstituted E. coli translation system", "assay_type": "biochemical"}, "[3]": {"system": "protein synthesis", "experiment": "Effect of protease inhibitors on protein synthesis in the translation system", "assay_type": "biochemical"}, "[4]": {"system": "protease activity of E. coli translation extract", "experiment": "Mass spectrometry assay of inhibition of R6 degradation in E. coli translation extract", "settings": "extract pre-treated with inhibitor, then R6; MALDI", "experimental": "In this experiment, protease inhibitors were tested to inhibit the degradation of the peptide R6 (described above). […] Following pretreatment, peptide R6 was added to above translation mix and incubated for 10 min at 30° C. The reaction was terminated by addition of 100 μL of 100 mM EDTA and the solution was immediately applied to the microcolumn containing 1 μL of Sigma ANTI-FLAG beads. The beads were then washed with 50 μL of 20 mM Tris-HCl, pH 7.2 and the bound peptide was eluted with approximately 4 μL of matrix solution (CHCA/acetonitrile/TFA) directly onto a MALDI plate. In the control experiment, extract pre-treated with buffer was used and processed as described above. Similar experiments were carried out using E. coli translation extract."}, "[5]": {"system": "protein synthesis in rabbit reticulocyte lysate", "assay_type": "biochemical"}, "[6]": {"experiment": "zonally purified E. coli ribosomes"}, "[7]": {"experiment": "rabbit reticulocyte lysate (RRL extract)", "settings": "30° C., up to 5 min"}, "[8]": {"experiment": "Solution B of the PURE kit (Post-Genome Institute)", "settings": "37 degrees, up to 20 minutes (or 10 minutes)"}, "[9]": {"experiment": "PURE I reconstituted E. coli translation system, all components except the DNA", "settings": "37° C., up to 15 min"}, "[10]": {"experiment": "heat denatured rabbit reticulocyte extract (by boiling at 100° C. for 5 min in presence of SDS)", "settings": "30° C."}, "[11]": {"system": "rabbit reticulocyte lysate, wheat germ extract, E. coli S30 extract", "settings": "within several minutes after incubation with the translation mixtures", "experimental": "100 picomoles of the synthetic R6 peptide in 1 microliter of water is added to 5 ul of a test solution and incubated for 20 minutes (or 10 minutes) at 37 degrees. 50 ul of PBS is then added to the test mixture and the resulting solution is passed over a 1 microliter anti-FLAG microcolumn (which recognizes the epitope sequence at the N terminus of the R6 peptide). The column is washed with 50 ul of deionized water and the bound peptides are eluted directly onto the maldi plate using 1 microliter of CHCA matrix in 50% acetonitrile/0.2% TFA/49.8% deionized water. The intact R6 peptide and degradation products are detected by Maldi-Tof mass spectrometry in positive ion linear mode."}, "[12]": {"system": "PURE", "text": "In this example, the protease-depleted system is used to produce the reference peptide (R6) by in vitro translation using DNA coding for the R6 peptide. Template for the reaction consists of a PCR product encoding the R6 peptide that is made by filling in overlapping oligonucleotides of the following sequence:"}, "[13]": {"system": "Amber-PURE", "experimental": "In order to remove the protease activity from solution B, 100 ul of solution B was added to 200 ul of deionized water and spun through a YM100 Microcon filter with a 100 kDa cut-off (Millipore, Inc) at 10,000 rpm for 5 minutes in a benchtop microfuge at room temperature. […] A 10 ul aliquot contains 3 ul of diluted and filtered solution B, 7 ul of solution A and 10 picomoles of zonally purified ribosomes.\nIn this example, the protease-depleted system is used to produce the reference peptide (R6) by in vitro translation using DNA coding for the R6 peptide."}},
  "note": "“Also recorded” adds a separate entry of the source. Like-named read-outs stand apart in the source and are kept apart here. Square brackets hold non-standard residues; d marks the D form. Peptide text beside a SMILES is read from it. * marks the point of attachment. Nva = CCC[C@H](N)C(=O)O; Cbz = O=C(OCc1ccccc1)*",
  "data": [
    {"compound": "CCC[C@@H](C=O)NC(=O)[C@H](CC(C)C)NC(=O)[C@H](CC(C)C)NC(=O)OCc1ccccc1", "note": "[2-LeuLeuNvaCHO] (Cbz-Leu-Leu-[Nva]-aldehyde)", "values": [
      {"measurement": "inhibition of R6 degradation (protease activity) in rabbit reticulocyte extract", "setting": "[1]", "result": "significant reduction in protease activity"}
    ]},
    {"compound": "NCCc1ccc(S(=O)(=O)F)cc1", "note": "[AEBSF]", "values": [
      {"measurement": "inhibition of R6 proteolysis in PURE I", "setting": "[2]; inhibitor pre-incubated 15-30 min, R6 15 min at 37° C.", "result": "excellent inhibition"},
      {"measurement": "inhibition of protein synthesis", "setting": "[3]; if used together with \"Pefabloc protector\"", "result": "could also inhibit protein synthesis"}
    ]},
    {"compound": "CC(C)C[C@H](NC(=O)[C@@H](NC(=O)N[C@@H](Cc1ccccc1)C(=O)O)[C@@H]1CCN=C(N)N1)C(=O)N[C@H](C=O)Cc1ccccc1", "note": "[Chymostatin]", "values": [
      {"measurement": "inhibition of protease activity (R6 degradation) in E. coli translation extract", "setting": "[4]", "result": "only weakly inhibited"}
    ]},
    {"compound": "C[C@@H]1C[C@@H]([C@H](O)CC2CC(=O)NC(=O)C2)C(=O)[C@@H](C)C1", "note": "[cycloheximide]", "values": [
      {"measurement": "inhibition of protein synthesis", "setting": "[5]", "result": "completely inhibited"}
    ]},
    {"compound": "Ebelactone", "values": [
      {"measurement": "inhibition of R6 degradation (protease activity) in rabbit reticulocyte extract", "setting": "[1]", "result": "only weak protease inhibition"}
    ]},
    {"compound": "MDYKDDDDKRRRRRRFFF", "values": [
      {"measurement": "not cleaved", "setting": "[6]", "result": "devoid of protease activity"},
      {"measurement": "cleaved bond", "setting": "[7]", "result": "Phe-Phe, minor, 1 min; also recorded: Arg-Arg, 1 min"},
      {"measurement": "cleaved bond", "setting": "[8]", "result": "R-R"},
      {"measurement": "fragment found", "setting": "[9]", "result": "MDYKDDDDKRRRRR, major, 15 min"}
    ]},
    {"compound": "MYTDIEMNRLGK", "values": [
      {"measurement": "not cleaved", "setting": "[10]", "result": "retains complete peptide signal"}
    ]},
    {"compound": "R6: protease-sensitive peptide, sequence MDYKDDDDKRRRRRRFFF (SEQ ID NO:152), FLAG epitope at the N-terminus (N-terminal FLAG epitope)", "values": [
      {"measurement": "intact peptide after incubation with PURE I mixture", "setting": "[2]; 15 min, 37° C., no inhibitor", "result": "disappearance of the intact R6 peptide"},
      {"measurement": "degradation of sub-nanomolar amounts of peptide", "setting": "[11]", "result": "complete degradation"},
      {"measurement": "peptide products obtained by in vitro translation", "setting": "[12]", "result": "correspond to degradation products"},
      {"measurement": "peptide product obtained by in vitro translation", "setting": "[13]", "result": "intact patent peptide"}
    ]},
    {"compound": "aprotinin", "values": [
      {"measurement": "inhibition of protein synthesis", "setting": "[3]", "result": "inhibit protein synthesis"},
      {"measurement": "inhibition of protease activity (R6 degradation) in E. coli translation extract", "setting": "[4]", "result": "significant inhibition"}
    ]}
  ]
}
